Test results reported in patent publication US6159953A, “Anti-malarial composition and method of use” (Catholic University of America, priority 1992, dated 2000).

Tested on: P. yoelii
Test: Anti-malarial activity in P. yoelii-infected mice
Format: in vivo, P. yoelii in Swiss white mice
Protocol: FIG. 4 illustrates the effect of 5-fluoro-orotate treatment on blood parasitemia. Mice infected with P. yoelii on day 0 in experiments 1 and 2 were treated with (A) 0.2 mg/kg 5-fluoro-orotate, (B) 1 mg/kg, or (C) 5 mg/kg every 4 hours for three days. Control mice (.largecircle., .circle-solid., respectively), received no drug. Open symbols represent treatment without uridine (experiment 1: .smallcircle., .quadrature., .diamond., Δ), and filled symbols represent animals also treated with uridine (experiment 2: .circle-solid., .box-solid., .diamond-solid., .tangle-solidup.). Animals were treated with 5-fluoro-orotate on days 3 to 6. Animals were also treated with uridine in experiment 2 on days 3 to 9.
FIG. 5 illustrates the survival rate of mice infected with P. yoelii and treated with 5-fluoro-orotate, alone or in combination with uridine. Mice were treated with (A) 0.2 mg/kg 5-fluoro-orotate, (B) 1 mg/kg, or (C) 5 mg/kg. Control mice received no 5-fluoro-orotate (.largecircle., .circle-solid., respectively). Open symbols represent treatment without uridine (experiment 1: .largecircle., .quadrature., .diamond., Δ), and closed symbols represent animals also receiving uridine (experiment 2: .circle-solid., .box-solid., .diamond-solid., .tangle-solidup.).
A second in vivo test system can be used to determine if repeated administration of the pyrimidine analogue would have safe anti-malarial activity. In this test system, groups of animals are infected with malaria parasites. At a time when blood parasitemia is reached, the animals are injected with saline alone (control) or with various concentrations of one or more pyrimidine analogues alone or together with one or more rescuing pyrimidine bases or nucleosides at a single concentration, at intervals, over a period of several days. In order to determine the prophylactic effectiveness of the rescuing pyrimidine base or nucleoside, the animals are pretreated with such a base or nucleoside prior to the administration of the pyrimidine analogue. Anti-malarial activity of the treatments is estimated by determining blood parasitemia on the animals at appropriate times. The safety of the treatments is estimated by monitoring animals for weight loss and diarrhea, as these are early symptoms of pyrimidine analogue toxicity [Houghton, J. A., et al., Cancer Res., 39:2406-13 (1979)].
Swiss white mice (25-30 g) were divided into groups of five. On day 0, each mouse was infected by intraperitoneal injection of 10^5 erythrocytic forms of P. yoelii. Starting on day 3, when the blood parasitemia had reached between 5 and 12%, the mice were injected intraperitoneally every 4 hours for three consecutive days with 200 μl of various formulations. […]

O=C(O)c1[nH]c(=O)[nH]c(=O)c1F [5-fluoro-orotate]
time to return of parasitemia after end of treatment (0.2 mg/kg, treatment stopped day 6): ≤ 24 h | transient parasitemia after rechallenge (10^6 P. yoelii parasites, days 2 to 4, 0.2 mg/kg group): less than 0.05% | time to resolution of second surge of parasitemia (low doses (0.2 and 1 mg/kg), no additional drug): ≤ 14 days
